In one series the test system is HIV-1 (IIIB). Description: microbe, parasite or virus in culture. Type of series: cell-based. Conditions: Human immunodeficiency virus 1, IIIB, MT4, 120 h, read-out: MT4 EC50.
The subject of another series is pLAI reporter virus. Description: microbe, parasite or virus in culture. The note with it: Human immunodeficiency virus 1, MT4, 72 h. The class given is cell-based, HIV.
Another series in a line: in vitro. The note with it: human, uninfected MT-4 cells.
Setting [1] is: HIV-1 (IIIB) in MT-4 cells, 5 days incubation, Cell Titer Glo.

Where two headings read alike, the source gives them in different places. Bounds are passed on as bounds.

Method for in vitro: Compounds were serially diluted (1:3) in DMSO on 384-well polypropylene plates and further diluted 200-fold into complete RPMI media (10% FBS, 1% P/S) using the Biotek Micro Flow and Labcyte ECHO acoustic dispenser. […] Infected and uninfected MT-4 cells were further diluted in complete RPMI media and added to each plate using a Micro Flow dispenser. After 5 days incubation in a humidified and temperature controlled incubator (37° C.), Cell Titer Glo (Promega) was added to the assay plates and chemiluminescence read using an Envision plate-reader.
Assays were performed as above except uninfected MT-4 cells were added to each well containing test compound. In addition, 10 μM puromycin was added to the last column of each assay plate to assess a base level of cytotoxicity.

Regarding `C[C@H]1CC[C@]2(CC(C(F)F)=NO2)[C@H]2CN1C(=O)c1c(O)c(=O)c(C(=O)NCc3c(F)cc(F)cc3F)cn12` [Example 20, (3′S,5S,7′R)-3-(difluoromethyl)-12′-hydroxy-3′-methyl-1′,11′-dioxo-N-(2,4,6-trifluorobenzyl)-1′,4′,5′,11′-tetrahydro-3′H,4H,7′H-spiro[isoxazole-5,6′-[2,7]methanopyrido[1,2-a][1,4]diazonine]-10′-carboxamide], the EC50 (as a rule, the concentration needed to bring the measured effect to its halfway point) with HIV-1 (IIIB) (setting [1]) was 1.2 nM; with pLAI reporter virus (read-out: RLUC 50% HS EC50) it was 168 nM; in the series with pLAI reporter virus (read-out: RLUC CCM EC50), 0.3 nM. Further, half-maximal cytotoxicity in “in vitro” (CC50 at 5 days) was put at 12400 nM.
As to `C[C@H]1CC[C@]2(CC(C#N)=NO2)[C@H]2CN1C(=O)c1c(O)c(=O)c(C(=O)NCc3ccc(F)cc3F)cn12` [Example 42, (3′S,5S,7′R)-3-cyano-N-(2,4-difluorobenzyl)-12′-hydroxy-3′-methyl-1′,11′-dioxo-1′,4′,5′,11′-tetrahydro-3′H,4H,7′H-spiro[isoxazole-5,6′-[2,7]methanopyrido[1,2-a][1,4]diazonine]-10′-carboxamide], the EC50 is at least 100 nM with HIV-1 (IIIB) (setting [1]), 550 nM in the series with pLAI reporter virus (read-out: RLUC 50% HS EC50) and 157 nM with pLAI reporter virus (read-out: RLUC CCM EC50). Moreover, in the series “in vitro”, the CC50 – broadly, the concentration at which the toxic effect on the cells reaches its halfway point – at 5 days was at least 50000 nM.
For `COC1=NO[C@@]2(C=C[C@H](C)N3C[C@H]2n2cc(C(=O)NCc4ccc(F)c(Cl)c4F)c(=O)c(O)c2C3=O)C1` [Example 48, (3′S,5R,7′R)—N-(3-chloro-2,4-difluorobenzyl)-12′-hydroxy-3-methoxy-3′-methyl-1′,11′-dioxo-1′,11′-dihydro-3′H,4H,7′H-spiro[isoxazole-5,6′-[2,7]methanopyrido[1,2-a][1,4]diazonine]-10′-carboxamide], the EC50 with HIV-1 (IIIB) (setting [1]) was 0.4 nM; in the series with pLAI reporter virus (read-out: RLUC 50% HS EC50), 8.1 nM; in the series with pLAI reporter virus (read-out: RLUC CCM EC50) it was 0.2 nM. This molecule displayed a CC50 at 5 days in “in vitro” of 22900 nM.
In the same order, the values of `C[C@H]1CC[C@]2(CC(=O)N(Cc3ccc(Br)cc3)O2)[C@H]2CN1C(=O)c1c(O)c(=O)c(C(=O)NCc3c(F)cc(F)cc3F)cn12` [Example 158, (3′S,5S,7′R)-2-(4-bromobenzyl)-12′-hydroxy-3′-methyl-1′,3,11′-trioxo-N-(2,4,6-trifluorobenzyl)-1′,4′,5′,11′-tetrahydro-3′H,7′H-spiro[isoxazolidine-5,6′-[2,7]methanopyrido[1,2-a][1,4]diazonine]-10′-carboxamide] are 1.7 nM, 3.2 nM, 0.8 nM and 2120 nM.
In the same order, the values of `C[C@H]1CC[C@]2(COCCO2)[C@H]2CN1C(=O)c1c(O)c(=O)c(C(=O)NCc3c(F)cc(F)cc3F)cn12` [Example 139, (2R,3′S,7′R)-12′-hydroxy-3′-methyl-1′,11′-dioxo-N-(2,4,6-trifluorobenzyl)-1′,4′,5′,11′-tetrahydro-3′H,7′H-spiro[[1,4]dioxane-2,6′-[2,7]methanopyrido[1,2-a][1,4]diazonine]-10′-carboxamide] are 1.4 nM, 83.7 nM, 0.1 nM and 30900 nM.
In the same order, the values of `C[C@H]1CC[C@]2(CC(=O)N(Cc3cccc(C(F)(F)F)c3)O2)[C@H]2CN1C(=O)c1c(O)c(=O)c(C(=O)NCc3c(F)cc(F)cc3F)cn12` [Example 111, (3′S,5S,7′R)-12′-hydroxy-3′-methyl-1′,3,11′-trioxo-N-(2,4,6-trifluorobenzyl)-2-(3-(trifluoromethyl)benzyl)-1′,4′,5′,11′-tetrahydro-3′H,7′H-spiro[isoxazolidine-5,6′-[2,7]methanopyrido[1,2-a][1,4]diazonine]-10′-carboxamide] are 2.3 nM, 1.9 nM, 0.4 nM and 7230 nM.
For the molecule `C[C@H]1CC[C@]2(CC(N(C)C)=NO2)[C@H]2CN1C(=O)c1c(O)c(=O)c(C(=O)NCc3c(F)cc(F)cc3F)cn12` [Example 52, (3′S,5S,7′R)-3-(dimethylamino)-12′-hydroxy-3′-methyl-1′,11′-dioxo-N-(2,4,6-trifluorobenzyl)-1′,4′,5′,11′-tetrahydro-3′H,4H,7′H-spiro[isoxazole-5,6′-[2,7]methanopyrido[1,2-a][1,4]diazonine]-10′-carboxamide], the EC50 in the series on HIV-1 (IIIB) worked out at 0.9 nM; in the series on pLAI reporter virus (read-out: RLUC 50% HS EC50), 6.2 nM; in the series with pLAI reporter virus (read-out: RLUC CCM EC50), 0.3 nM. For the same molecule, the CC50 at 5 days in “in vitro” came out at 27000 nM.
With `C[C@@H]1OC[C@]2(CC[C@H](C)N3C[C@H]2n2cc(C(=O)NCc4c(F)cc(F)cc4F)c(=O)c(O)c2C3=O)O1` [Example 133, (2R,3′S,4R,7′R)-12′-hydroxy-2,3′-dimethyl-1′,11′-dioxo-N-(2,4,6-trifluorobenzyl)-1′,4′,5′,11′-tetrahydro-3′H,7′H-spiro[[1,3]dioxolane-4,6′-[2,7]methanopyrido[1,2-a][1,4]diazonine]-10′-carboxamide], the EC50 with HIV-1 (IIIB) (setting [1]) is 1.7 nM; in the series with pLAI reporter virus (read-out: RLUC 50% HS EC50) it was 102 nM; with pLAI reporter virus (read-out: RLUC CCM EC50) it was 0.5 nM. Moreover, in the series “in vitro”, the CC50 at 5 days was determined as 20200 nM.
`C[C@H]1CO[C@]2(CC[C@H](C)N3C[C@H]2n2cc(C(=O)NCc4c(F)cc(F)cc4F)c(=O)c(O)c2C3=O)O1` [Example 127, (2R,3′S,4S,7′R)-12′-hydroxy-3′,4-dimethyl-1′,11′-dioxo-N-(2,4,6-trifluorobenzyl)-1′,4′,5′,11′-tetrahydro-3′H,7′H-spiro[[1,3]dioxolane-2,6′-[2,7]methanopyrido[1,2-a][1,4]diazonine]-10′-carboxamide]: the EC50 in the series with HIV-1 (IIIB) (setting [1]) stood at 1.2 nM; with pLAI reporter virus (read-out: RLUC 50% HS EC50), 13.3 nM; in the series with pLAI reporter virus (read-out: RLUC CCM EC50) it was 0.1 nM. This molecule also registered a CC50 at 5 days in “in vitro” of 49900 nM.
Turning to `C[C@H]1CC[C@]2(CC(C(F)(F)F)=NO2)[C@H]2CN1C(=O)c1c(O)c(=O)c(C(=O)NCc3c(F)cc(F)cc3F)cn12` [Example 73, (3′S,5S,7′R)-12′-hydroxy-3′-methyl-1′,11′-dioxo-N-(2,4,6-trifluorobenzyl)-3-(trifluoromethyl)-1′,4′,5′,11′-tetrahydro-3′H,4H,7′H-spiro[isoxazole-5,6′-[2,7]methanopyrido[1,2-a][1,4]diazonine]-10′-carboxamide], the results for the EC50 in the series with HIV-1 (IIIB) (setting [1]), in the series on pLAI reporter virus (read-out: RLUC 50% HS EC50) and with pLAI reporter virus (read-out: RLUC CCM EC50) were 1.1 nM, 65.2 nM and 0.2 nM, respectively. Also, it took 31200 nM to reach half-maximal cytotoxicity in the series “in vitro” (CC50 at 5 days).
As to `CCN1C[C@@]2(CC[C@H](C)N3C[C@H]2n2cc(C(=O)NCc4c(F)cc(F)cc4F)c(=O)c(O)c2C3=O)OC1=O` [Example 63, (3′S,5R,7′R)-3-ethyl-12′-hydroxy-3′-methyl-1′,2,11′-trioxo-N-(2,4,6-trifluorobenzyl)-1′,4′,5′,11′-tetrahydro-3′H,7′H-spiro[oxazolidine-5,6′-[2,7]methanopyrido[1,2-a][1,4]diazonine]-10′-carboxamide], the EC50 was 45.9 nM with HIV-1 (IIIB) (setting [1]), 15.5 nM with pLAI reporter virus (read-out: RLUC 50% HS EC50) and 11.1 nM in the series with pLAI reporter virus (read-out: RLUC CCM EC50). The CC50 at 5 days in “in vitro” was at least 50000 nM.
In the same order, the values of `CC1=NO[C@@]2(CC[C@H](C)N3C[C@H]2n2cc(C(=O)NCc4ccc(F)cc4F)c(=O)c(O)c2C3=O)N1C` [Example 149a, (3′S,5R,7′R)—N-(2,4-difluorobenzyl)-12′-hydroxy-3,3′,4-trimethyl-1′,11′-dioxo-1′,4′,5′,11′-tetrahydro-3′H,4H,7′H-spiro[[1,2,4]oxadiazole-5,6′-[2,7]methanopyrido[1,2-a][1,4]diazonine]-10′-carboxamide] are 2 nM, 4.8 nM, 0.8 nM and at least 50000 nM.

Source of the values: patent US20250115620A1, “BRIDGED TRICYCLIC CARBAMOYLPYRIDONE COMPOUNDS AND USES THEREOF” (Gilead Sciences, Inc., priority 2022, published 2025).
